Literature values as cited in patent publication US20250170146A1, “NIRAPARIB AND ABIRATERONE ACETATE PLUS PREDNISONE TO IMPROVE CLINICAL OUTCOMES IN PATIENTS WITH METASTATIC CASTRATION-RESISTANT PROSTATE CANCER AND HRR ALTERATIONS” (JANSSEN PHARMACEUTICA NV, priority 2022, published 2025).
Read-outs that look alike come from different tables or passages of the source.

Assays:
CYP2C8 = target: T1, CYP2C8 (Homo sapiens, UniProt P10632); settings: pioglitazone with a single dose of 1,000 mg AA; healthy subjects
T1 construct: host or cells: healthy subjects (in vivo; the subjects' own enzyme)
T1 sequence (P10632 1-490): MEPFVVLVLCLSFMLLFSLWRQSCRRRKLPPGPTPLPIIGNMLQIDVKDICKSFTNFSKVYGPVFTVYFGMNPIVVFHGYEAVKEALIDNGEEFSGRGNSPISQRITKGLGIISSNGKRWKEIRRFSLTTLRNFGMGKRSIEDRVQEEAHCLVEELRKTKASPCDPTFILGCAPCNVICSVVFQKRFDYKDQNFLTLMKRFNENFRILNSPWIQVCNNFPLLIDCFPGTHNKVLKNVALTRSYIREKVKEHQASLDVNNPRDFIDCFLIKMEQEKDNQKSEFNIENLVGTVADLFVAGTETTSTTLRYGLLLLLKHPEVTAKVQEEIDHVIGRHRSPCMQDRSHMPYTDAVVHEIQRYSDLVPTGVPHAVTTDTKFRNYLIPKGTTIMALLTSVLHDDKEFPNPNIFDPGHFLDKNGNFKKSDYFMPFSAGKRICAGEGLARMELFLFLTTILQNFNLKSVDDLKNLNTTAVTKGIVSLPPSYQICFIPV

[1] = system: first line (pre-docetaxel) mCRPC; settings: Prevail
post-docetaxel mCRPC = settings: Affirm
mCRPC = settings: TAX-327

CC(=O)O[C@H]1CC[C@@]2(C)C(=CC[C@@H]3[C@@H]2CC[C@]2(C)C(c4cccnc4)=CC[C@@H]32)C1 [AA, Abiraterone acetate]
increase in AUC of pioglitazone (CYP2C8): 46%

CNC(=O)c1ccc(N2C(=S)N(c3ccc(C#N)c(C(F)(F)F)c3)C(=O)C2(C)C)cc1F [Enzalutamide]
12-month rPFS milestone [1]: 65% | investigator assessed rPFS [1]: 20 months | median OS [1]: 35.3 months | median rPFS [1]: not reached | objective response rate (ORR) [1]: 59% | rPFS benefit by BICR Hazard Ratio [1]: 0.32 | rPFS risk reduction by BICR [1]: 68% | OS (post-docetaxel mCRPC): 18.4 months | OS benefit vs placebo (post-docetaxel mCRPC): 4.8 months | PSA50 response (post-docetaxel mCRPC): 54% | QoL response rate (post-docetaxel mCRPC): 43% | TTPSA progression (post-docetaxel mCRPC): 8.3 months | rPFS (post-docetaxel mCRPC): 8.3 months

CC(=O)O[C@@]12CO[C@@H]1C[C@H](O)[C@@]1(C)C(=O)[C@H](O)C3=C(C)[C@@H](OC(=O)[C@H](O)[C@@H](NC(=O)OC(C)(C)C)c4ccccc4)C[C@@](O)([C@@H](OC(=O)c4ccccc4)[C@H]21)C3(C)C [docetaxel]
OS benefit vs mitoxantrone (mCRPC): 2.4 months | PSA50 response (mCRPC): 45% | overall survival (OS) (mCRPC): 18.9 months | quality of life (QoL) response (mCRPC): 22% | tumor response (mCRPC): 12%

O=C1c2c(O)ccc(O)c2C(=O)c2c(NCCNCCO)ccc(NCCNCCO)c21 [mitoxantrone]
PSA50 response (mCRPC): 32% | overall survival (OS) (mCRPC): 16.5 months | quality of life (QoL) response (mCRPC): 13% | tumor response (mCRPC): 7%

Cc1ccc(S(=O)(=O)O)cc1.NC(=O)c1cccc2cn(-c3ccc([C@@H]4CCCNC4)cc3)nc12 [niraparib, 2-[4-[(3S)-piperidin-3-yl]phenyl]-2H-indazole-7-carboxamide]
median OS (L2+ mCRPC HRR-positive; L2+ mCRPC BRCA patients): 13.01 months | median rPFS (L2+ mCRPC HRR-positive; L2+ mCRPC BRCA patients): 8.08 months | median time to PSA progression (L2+ mCRPC HRR-positive; L2+ mCRPC BRCA patients): 5.13 months | median time to symptomatic skeletal event (L2+ mCRPC HRR-positive; L2+ mCRPC BRCA patients): 13.80 months | overall response rate (ORR) (L2+ mCRPC HRR-positive; L2+ mCRPC BRCA patients): 34.2% | ORR (L2+ mCRPC HRR-positive; L2+ mCRPC non-BRCA patients): 10.6% | median OS (L2+ mCRPC HRR-positive; non-BRCA patients): 9.63 months | median rPFS (L2+ mCRPC HRR-positive; non-BRCA patients): 3.71 months | median time to PSA progression (L2+ mCRPC HRR-positive; non-BRCA patients): 3.65 months | median time to symptomatic skeletal event (L2+ mCRPC HRR-positive; non-BRCA patients): 10.35 months
